# Assay results from patent US10683276B2, “Heterocycle-substituted bicyclic azole pesticides” (FMC Corporation, priority 2015, dated 2020).
# What was measured:
# Format in all cases: in vivo
# [1] = system: diamondback moth (Plutella xylostella (L.)); assay: Test A: control of diamondback moth, foliar spray on mustard plant; conditions: sprayed at 250 ppm; neonate larvae on mustard plant; assessed after 6 days
# Procedure: (§1) Test compounds were formulated using a solution containing 10% acetone, 90% water and 300 ppm X-77® Spreader Lo-Foam Formula non-ionic surfactant containing alkylarylpolyoxyethylene, free fatty acids, glycols and isopropanol (Loveland Industries, Inc. Greeley, Colo., USA). The formulated compounds were applied in 1 mL of liquid through a SUJ2 atomizer nozzle with ⅛ JJ custom body (Spraying Systems Co. Wheaton, Ill., USA) positioned 1.27 cm (0.5 inches) above the top of each test unit. Test compounds were sprayed at the rates indicated, and each test was replicated three times.
# For evaluating control of diamondback moth (Plutella xylostella (L.)) the test unit consisted of a small open container with a 12-14-day-old mustard plant inside. This was pre-infested with ˜50 neonate larvae that were dispensed into the test unit via corn cob grits using an inoculator. The larvae moved onto the test plant after being dispensed into the test unit.
# Test compounds were formulated and sprayed at 250 and/or 50 ppm. After spraying of the formulated test compound, each test unit was allowed to dry for 1 hour and then a black, screened cap was placed on top. The test units were held for 6 days in a growth chamber at 25° C. and 70% relative humidity. Plant feeding damage was then visually assessed based on foliage consumed, and larvae were assessed for mortality.
# [2] = system: cotton melon aphid (Aphis gossypii (Glover)); assay: Test D: control of cotton melon aphid, spray on cotton plant; conditions: 144 h, sprayed at 50 ppm, assessed after 6 days
# Procedure: as §1
# For evaluating control of cotton melon aphid (Aphis gossypii (Glover)) through contact and/or systemic means, the test unit consisted of a small open container with a 6-7-day-old cotton plant inside. This was pre-infested with 30-40 insects on a piece of leaf according to the cut-leaf method, and the soil of the test unit was covered with a layer of sand.
# Test compounds were formulated and sprayed at 250 and/or 50 ppm. After spraying, the test units were maintained in a growth chamber for 6 days at 19° C. and 70% relative humidity. Each test unit was then visually assessed for insect mortality.
# [3] = system: green peach aphid (Myzus persicae (Sulzer)); assay: Test C: control of green peach aphid, spray on radish plant; conditions: 144 h, sprayed at 50 ppm, assessed after 6 days
# Procedure: as §1
# For evaluating control of green peach aphid (Myzus persicae (Sulzer)) through contact and/or systemic means, the test unit consisted of a small open container with a 12-15-day-old radish plant inside. This was pre-infested by placing on a leaf of the test plant 30-40 aphids on a piece of leaf excised from a culture plant (cut-leaf method). The aphids moved onto the test plant as the leaf piece desiccated. After pre-infestation, the soil of the test unit was covered with a layer of sand.
# Test compounds were formulated and sprayed at 250 and/or 50 ppm. After spraying of the formulated test compound, each test unit was allowed to dry for 1 hour and then a black, screened cap was placed on top. […] Each test unit was then visually assessed for insect mortality.
# [4] = system: sweetpotato whitefly (Bemisia tabaci (Gennadius)); assay: Test E: control of sweetpotato whitefly, spray on cotton plant; conditions: sprayed at 50 ppm; eggs on cotton plant; assessed after 13 days
# Procedure: as §1
# For evaluating control of the sweetpotato whitefly (Bemisia tabaci (Gennadius)) through contact and/or systemic means, the test unit consisted of a small open container with a 12-14-day-old cotton plant inside. Prior to the spray application, both cotyledons were removed from the plant, leaving one true leaf for the assay. Adult whiteflies were allowed to lay eggs on the plant and then were removed from the test unit. Cotton plants infested with at least 15 eggs were submitted to the test for spraying.
# Test compounds were formulated and sprayed at 250 and/or 50 ppm. After spraying, the test units were allowed to dry for 1 hour. […] Each test unit was then visually assessed for insect mortality.
# [5] = system: Western Flower Thrips (Frankliniellla occidentalis (Pergande)); assay: Test F: control of Western Flower Thrips, spray on Soleil bean plant; conditions: sprayed at 250 ppm; adult thrips on Soleil bean plant; held for 6 days
# Procedure: For evaluating control of the Western Flower Thrips (Frankliniellla occidentalis (Pergande)) through contact and/or systemic means, the test unit consisted of a small open container with a 5-7-day-old Soleil bean plant inside.
# Test compounds were formulated and sprayed at 250 and/or 50 ppm. After spraying, the test units were allowed to dry for 1 hour, and then 22-27 adult thrips were added to each unit. A black, screened cap was placed on top, and the test units were held for 6 days at 25° C. and 45-55% relative humidity.
structure (smiles),measurement,setting,value
CN(C)C(=O)C(C)(C)NC(=O)C(C)(C)NC(=O)c1cccc2nn(-c3cccnc3)cc12 [Compound 2],control efficacy (40% or less feeding damage and/or 100% mortality),[1],very good to excellent levels of control efficacy
"CC(C)(NC(=O)c1cccc2nn(-c3cccnc3)cc12)C(=O)NCc1ccccc1 [Compound 25, N-[1,1-dimethyl-2-oxo-2-[(phenylmethyl)amino]ethyl]-2-(3-pyridinyl)-2H-indazole-4-carboxamide]",mortality at 50 ppm,[2],≥ 80%
same,mortality at 50 ppm,[3],≥ 80%
CC(C)(NC(=O)c1cccc2nn(-c3cccnc3)cc12)C(=O)NCc1ccccn1 [Compound 26],mortality,[4],at least 50%
CC(C)(NC(=O)c1cccc2nn(-c3cccnc3)cc12)C(=O)NC1CCC1 [Compound 43],control efficacy (30% or less plant damage and/or 100% mortality),[5],very good to excellent levels of control efficacy
CON(C)C(=O)C(C)(C)NC(=O)c1cccc2nn(-c3cccnc3)cc12 [Compound 47],control efficacy (30% or less plant damage and/or 100% mortality),[5],very good to excellent levels of control efficacy
CONC(=O)C(C)(C)NC(=O)c1cccc2nn(-c3cccnc3)cc12 [Compound 48],control efficacy (30% or less plant damage and/or 100% mortality),[5],very good to excellent levels of control efficacy
